We go through 30 compounds from ChEMBL document CHEMBL3792372, “Modification of the length and structure of the linker of N(6)-benzyladenosine modulates its selective antiviral activity against enterovirus 71” (Eur J Med Chem, 2016).

Where only a bound is given, the exact number is not on record here.

Data set [1] relates to Enterovirus A71. Kind of data set: Antiviral activity against Enterovirus 71 isolate TW/2429/04 infected in human RD cells assessed as cell viability after 3 days by MTS assay. The data set is classed as functional, organism-based. The following applies: Enterovirus A, isolate TW/2429/04, RD, 72 h. For orientation: Tetrazolium assays rely on reduction of a dye to a coloured formazan, in cell work by metabolically active cells.

Data set [2] is described as follows: Cytotoxicity against human RD cells. Format: cell-based.
Data set [3] relates to Enterovirus A71. Briefly: Antiviral activity against Enterovirus 71 clinical isolate TW/70902/08 infected in human RD cells assessed as cell viability after 3 days by MTS assay. Format: functional, organism-based. The following applies: Enterovirus A, isolate TW/70902/08, RD, 72 h.
The test system of data set [4] is Enterovirus A71. Briefly: Antiviral activity against Enterovirus 71 clinical isolate TW/1956/05 infected in human RD cells assessed as cell viability after 3 days by MTS assay. The following applies: Enterovirus A, isolate TW/1956/05, RD, 72 h. Format: functional, organism-based.
A short description of data set [5]: Selectivity index, ratio of CC50 for human RD cells to EC50 for Enterovirus 71. The data set is classed as toxicity, cell-based. The note with it: read-out: Ratio CC50/EC50.
Data set [6] has as its system Enterovirus A71. Kind of data set: Antiviral activity against Enterovirus 71 clinical isolate 11316 infected in human RD cells assessed as cell viability after 3 days by MTS assay. The data set is classed as functional, organism-based. The note with it: Enterovirus A, isolate 11316, RD, 72 h.
The test system of data set [7] is Enterovirus A71. Kind of data set: Antiviral activity against Enterovirus 71 infected in human RD cells assessed as cell viability after 3 days by MTS assay. The note with it: Enterovirus A, 72 h. Format: functional, organism-based.
Data set [8] relates to Enterovirus A71. Kind of data set: Antiviral activity against Enterovirus 71 clinical isolate TW/96016/08 infected in human RD cells assessed as cell viability after 3 days by MTS assay. The data set is classed as functional, organism-based. The following applies: Enterovirus A, isolate TW/96016/08, RD, 72 h.
For data set [9], the system named is Enterovirus A71. Kind of data set: Antiviral activity against Enterovirus 71 clinical isolate H08300 461#812 infected in human RD cells assessed as cell viability after 3 days by MTS assay. The data set is classed as functional, organism-based. The note with it: Enterovirus A, isolate H08300 461#812, RD, 72 h.

What is called EC50 is the concentration needed to bring the measured effect to its halfway point. As a reminder, the CC50 is the concentration at which the toxic effect on the cells reaches its halfway point. High values mean lower toxicity to the cells, low ones greater toxicity to the cells. In the case of `OC[C@H]1O[C@@H](n2cnc3c(NCCc4ccccc4)ncnc32)[C@H](O)[C@@H]1O`, the EC50 in the data set on Enterovirus A71 [1] came out at 3.7 µM; with Enterovirus A71 [3] it was 8.3 µM; in the data set on Enterovirus A71 [4], 2.7 µM; with Enterovirus A71 [6], 8.2 µM; in the data set with Enterovirus A71 [7], 1.8 µM; with Enterovirus A71 [8] it was 5.6 µM. The EC50 in the data set with Enterovirus A71 [9] was 1.9 µM. In data set [2], this compound yielded a CC50 of 221 µM. Moreover, in data set [5], the selectivity ratio came out at 123.

Turning to `O=C(Nc1ncnc2c1ncn2[C@@H]1O[C@H](CO)[C@@H](O)[C@H]1O)c1ccccc1`, in [2], the CC50 was more than 337 µM. In addition, the selectivity ratio in [5] was more than 28. In the data set with Enterovirus A71 [7], the EC50 is 12 µM.

The compound `OC[C@H]1O[C@@H](n2cnc3c(NCCCCc4ccccc4)ncnc32)[C@H](O)[C@@H]1O` gave a CC50 in data set [2] of more than 313 µM. Moreover, the EC50 in the data set with Enterovirus A71 [7] is more than 250 µM.

In the case of `OC[C@H]1O[C@@H](n2cnc3c(NCCCc4ccccc4)ncnc32)[C@H](O)[C@@H]1O`, in data set [2], half-maximal cytotoxicity (CC50) was put at 189 µM. Moreover, the selectivity ratio in [5] came to 105. The EC50 with Enterovirus A71 [7] was determined as 1.8 µM.

In [2], `OC[C@H]1O[C@@H](n2cnc3c(OCc4ccccc4)ncnc32)[C@H](O)[C@@H]1O` yielded a CC50 of 191 µM. For the same compound, the selectivity ratio in data set [5] was found to be 37. For the same compound, the EC50 in the data set on Enterovirus A71 [7] is 5.1 µM.

Turning to `Cn1cc(CNc2ncnc3c2ncn3[C@@H]2O[C@H](CO)[C@@H](O)[C@H]2O)nn1`, in data set [2], it took 136 µM to reach half-maximal cytotoxicity (CC50). The EC50 with Enterovirus A71 [7] was more than 136 µM.

Regarding `OC[C@H]1O[C@@H](n2cnc3c(OCCc4ccccc4)ncnc32)[C@H](O)[C@@H]1O`, the midpoint of cytotoxicity in [2], the CC50, lay at 8.5 µM. Also, in the data set with Enterovirus A71 [7], the EC50 was more than 8.5 µM.

Compound `OC[C@H]1O[C@@H](n2cnc3c(NCCc4ccccc4)ncnc32)C[C@@H]1O` gave a CC50 in [2] of more than 352 µM. Moreover, in the data set on Enterovirus A71 [7], the EC50 is more than 281 µM.

On to `O=C(Nc1ncnc2c1ncn2C(CO)OC(CO)CO)c1ccccc1` (stereo unspecified), for which the CC50 in data set [2] was more than 335 µM. Also, in the data set with Enterovirus A71 [7], the EC50 is more than 335 µM.

Take `C=CCC#CCNc1ncnc2c1ncn2[C@@H]1O[C@H](CO)[C@@H](O)[C@H]1O`: the CC50 in data set [2] is more than 434 µM. Further, in data set [5], the selectivity ratio was more than 88. In the data set on Enterovirus A71 [7], the concentration for a half-maximal effect (EC50) stood at 4.9 µM.

Take `OC[C@H]1O[C@@H](n2cnc3c(OCCCc4ccccc4)ncnc32)[C@H](O)[C@@H]1O`: in data set [2], the CC50 worked out at 182 µM. For the same compound, the EC50 with Enterovirus A71 [7] was more than 182 µM.

In [2], `OC[C@H]1O[C@@H](n2cnc3c(NCOCc4ccccc4)ncnc32)[C@H](O)[C@@H]1O` came in with a CC50 of 525 µM. In addition, the selectivity ratio in data set [5] came out at 175. The EC50 in the data set with Enterovirus A71 [7] was 3 µM.

In the case of `OC[C@H]1O[C@@H](n2cnc3c(NCCCOc4ccccc4)ncnc32)[C@H](O)[C@@H]1O`, the CC50 in data set [2] was more than 311 µM. In the data set with Enterovirus A71 [7], the half-maximal effective concentration (EC50) is more than 311 µM.

In data set [2], `OC[C@H]1O[C@@H](n2cnc3c(NCCOc4ccccc4)ncnc32)C[C@@H]1O` registered a CC50 of more than 337 µM. For the same compound, the concentration giving a half-maximal response (EC50) in the data set with Enterovirus A71 [7] was more than 135 µM.

For `OC[C@H]1O[C@@H](n2cnc3c(NCCCc4ccccc4)ncnc32)C[C@@H]1O`, in data set [2], the CC50 was more than 271 µM. In addition, the EC50 in the data set on Enterovirus A71 [7] was more than 271 µM.

On to `OC[C@H]1O[C@@H](n2cnc3c(NCc4ccccc4)ncnc32)C[C@@H]1O`, for which the CC50 in data set [2] is more than 366 µM. In addition, the EC50 in the data set with Enterovirus A71 [7] is more than 146 µM.

Turning to `OCCn1cc(CNc2ncnc3c2ncn3[C@@H]2O[C@H](CO)[C@@H](O)[C@H]2O)nn1`, the midpoint of cytotoxicity in data set [2], the CC50, lay at 317 µM. The EC50 in the data set with Enterovirus A71 [7] is more than 317 µM.

`C[C@H]1O[C@@H](n2cnc3c(NCc4ccccc4)ncnc32)[C@H](O)[C@@H]1O` had a half-maximal cytotoxic concentration (CC50) in [2] of more than 366 µM. For the same compound, in [5], the selectivity ratio was more than 54. Besides, the EC50 in the data set on Enterovirus A71 [7] worked out at 6.7 µM.

In data set [2], `OC[C@H]1O[C@@H](n2cnc3c(NCc4cn(COCc5ccccc5)nn4)ncnc32)[C@H](O)[C@@H]1O` showed a CC50 of 116 µM. In addition, in the data set with Enterovirus A71 [7], the EC50 was more than 116 µM.

Regarding `OC[C@H]1O[C@@H](n2cnc3c(NCC#Cc4ccccc4)ncnc32)[C@H](O)[C@@H]1O`, in data set [2], the CC50 stood at 72 µM. Moreover, the selectivity ratio in [5] stood at 124. The 50% effective concentration (EC50) in the data set on Enterovirus A71 [7] stood at 0.58 µM.

Consider `OC[C@H]1O[C@@H](n2cnc3c(NC/C=C/c4ccccc4)ncnc32)[C@H](O)[C@@H]1O`, for which the EC50 with Enterovirus A71 [1] was 1.16 µM; in the data set on Enterovirus A71 [3], 2.5 µM; with Enterovirus A71 [4] it was 1 µM; in the data set with Enterovirus A71 [6], 2.2 µM; in the data set on Enterovirus A71 [7] it was 0.66 µM; in the data set on Enterovirus A71 [8], 2 µM. For the same compound, the EC50 in the data set on Enterovirus A71 [9] was determined as 0.38 µM. This compound also returned a CC50 in [2] of 426 µM. The selectivity ratio in data set [5] was 645.

Consider `OC[C@H]1O[C@@H](n2cnc3c(NCCOc4ccccc4)ncnc32)[C@H](O)[C@@H]1O`, for which the midpoint of cytotoxicity in data set [2], the CC50, lay at 107 µM. The selectivity ratio in [5] was 25. Also, the EC50 in the data set with Enterovirus A71 [7] amounted to 4.3 µM.

Regarding `C[C@H]1O[C@@H](n2cnc3c(NCCc4ccccc4)ncnc32)[C@H](O)[C@@H]1O`, in data set [2], the midpoint of cytotoxicity, the CC50, lay at 463 µM. In addition, the EC50 with Enterovirus A71 [7] is more than 281 µM.

In data set [2], `OC[C@H]1O[C@@H](n2cnc3c(NCc4cn(Cc5ccccc5)nn4)ncnc32)[C@H](O)[C@@H]1O` showed a CC50 of more than 285 µM. Besides, the EC50 in the data set on Enterovirus A71 [7] was more than 228 µM.

With `CC(C)=CCNc1ncnc2nc[nH]c12`, the midpoint of cytotoxicity in data set [2], the CC50, lay at 325 µM. Moreover, in the data set on Enterovirus A71 [7], the EC50 was more than 325 µM.

For the compound `c1ccc(CNc2ncnc3nc[nH]c23)cc1` [6-BENZYLAMINOPURINE], half-maximal cytotoxicity in [2] (CC50) was put at 547 µM. The selectivity ratio in data set [5] was 1300. For the same compound, the EC50 in the data set with Enterovirus A71 [7] was determined as 0.42 µM.

In turn, `OC[C@H]1O[C@@H](n2cnc3c(NCc4ccco4)ncnc32)[C@H](O)[C@@H]1O` [KINETIN RIBOSIDE] returned a 50% cytotoxic concentration (CC50) in [2] of 7.8 µM. The selectivity ratio in data set [5] is 5.6. Moreover, the EC50 in the data set with Enterovirus A71 [7] was determined as 1.4 µM.

`OC[C@H]1O[C@@H](n2cnc3c(NCc4ccccc4)ncnc32)[C@H](O)[C@@H]1O` [N6-BENZYLADENOSINE]: the midpoint of cytotoxicity in data set [2], the CC50, lay at 4 µM. Further, the selectivity ratio in [5] was 14. Besides, the EC50 in the data set with Enterovirus A71 [7] was 0.28 µM.

For `OC[C@H]1O[C@@H](n2cnc3c(Nc4ccccc4)ncnc32)[C@H](O)[C@@H]1O` [N6-PHENYLADENOSINE], in [2], the CC50 turned out to be 372 µM. Besides, the concentration giving a half-maximal response (EC50) in the data set on Enterovirus A71 [7] was more than 291 µM.

Regarding `CC(C)=CCNc1ncnc2c1ncn2[C@@H]1O[C@H](CO)[C@@H](O)[C@H]1O` [RIBOPRINE], in data set [2], the CC50 is 5.8 µM. The selectivity ratio in data set [5] worked out at 5.8. Moreover, the EC50 in the data set with Enterovirus A71 [7] came to 1 µM.
